In ChEMBL document CHEMBL1201862, “PubChem BioAssay data set” (2004):
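The compound was tested at five concentrations on cells cultured in 96-well plates, with a 48-hour exposure period. GI50: concentration for 50% inhibition of growth.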 The source made the active and inactive calls. No stated cut-off is given here; in the data, active = GI50 up to about 1.1 µM and inactive = higher.

Experiments:
Assay in all cases: NCI anticancer screen, dose series, 48 h
[1] = test system: M19-MEL
[2] = test system: XF498
[3] = test system: EKVX
[4] = test system: KM12
[5] = test system: CAKI-1
[6] = test system: SF-295
[7] = test system: UO-31
[8] = test system: OVCAR-8
[9] = test system: NCI-H23
[10] = test system: SK-MEL-2
[11] = test system: COLO 205
[12] = test system: SK-MEL-28
[13] = test system: A498
[14] = test system: 786-0
[15] = test system: HL-60
[16] = test system: SNB-75
[17] = test system: SK-OV-3
[18] = test system: SNB-19
[19] = test system: CCRF-CEM
[20] = test system: HOP-92
[21] = test system: DMS-114
[22] = test system: LOX IMVI
[23] = test system: RXF 393
[24] = test system: M14
[25] = test system: NCI-H226
[26] = test system: Malme-3M
[27] = test system: SW-620
[28] = test system: U-251
[29] = test system: HOP-62
[30] = test system: TK-10
[31] = test system: RPMI-8226
[32] = test system: SF-539
[33] = test system: MOLT-4
[34] = test system: LXFL 529
[35] = test system: OVCAR-4
[36] = test system: OVCAR-5
[37] = test system: SF-268
[38] = test system: K562
[39] = test system: A549
[40] = test system: NCI-H522
[41] = test system: HOP-18
[42] = test system: ACHN
[43] = test system: NCI-H460
[44] = test system: DLD-1
[45] = test system: UACC-257
[46] = test system: SK-MEL-5
[47] = test system: KM-20L2
[48] = test system: OVCAR-3
[49] = test system: DMS-273
[50] = test system: HCC 2998
[51] = test system: SNB-78
[52] = test system: HCT-116
[53] = test system: UACC-62
[54] = test system: SN12C
[55] = test system: IGROV-1

Measured: GI50

Cc1nc(Nc2ccc(Cl)cc2)sc1C(=O)NNc1ccc([N+](=O)[O-])cc1[N+](=O)[O-]
inactive: [1] 22 µM | [2] 16.9 µM | [3] 14.9 µM | [4] 15.8 µM | [5] 23.6 µM | [6] 18.1 µM | [7] 14.2 µM | [8] 21.4 µM | [9] 17.3 µM | [10] 17.9 µM | [11] 19.8 µM | [12] 19.9 µM | [13] 15.9 µM | [14] 16.3 µM | [15] 16 µM | [16] 16.7 µM | [17] 29.2 µM | [18] 16.7 µM | [19] 17.8 µM | [20] 23.6 µM | [21] 14.6 µM | [22] 15.1 µM | [23] 16.3 µM | [24] 24.7 µM | [25] 15.7 µM | [26] 20.7 µM | [27] 22 µM | [28] 15.6 µM | [29] 12.2 µM | [30] 19.8 µM | [31] 18.2 µM | [32] 17.3 µM | [33] 15 µM | [34] 17.1 µM | [35] 18.4 µM | [36] 16.3 µM | [37] 18.7 µM | [38] 16.8 µM | [39] 16.6 µM | [40] 14 µM | [41] 14 µM | [42] 17.3 µM | [43] 18 µM | [44] 14.2 µM | [45] 16.4 µM | [46] 15.6 µM | [47] 16.2 µM | [48] 19.3 µM | [49] 19.5 µM | [50] 16.3 µM | [51] 39.1 µM | [52] 13.8 µM | [53] 14.3 µM | [54] 17.7 µM | [55] 20.9 µM
